Series [1] is described as follows: Pharmacological (behavioral) signs after percutaneous diazepam in animal models, e.g. rhesus monkey. It is filed as in vivo. Conditions: percutaneous administration, blood level of approximately 100 ng/ml.
On series [2], the source says:
Rat full thickness skins were used in the following two types of diffusion cell methods.
The skin was excised from the shaved abdominal site of deceased male albino rats weighing 250~300 g, and washed with normal saline solution after the subcutaneous fat was carefully removed with scissors.
Probl. Dermatol., Vol. 7, p. […] The rat skin was mounted horizontally in a diffusion cell apparatus; the exposed area of the skin approximated 0.7 cm^2.
The active agent/PEAC solution of known concentration was added to the upper compartment of the cell, which was exposed to the epithelial side of the skin and a normal saline solution was placed in the lower compartment.
The penetration rate was studied in a thermostated bath at 30° C.
(§1) In all instances the in vitro diffusion cell technique or the in vivo rhesus monkey test earlier described were used. In all instances analysis was by conventional HPLC (high pressure liquid chromatography). Details and citations are given for illustrative techniques.
Detection was in a conventional manner via HPLC using a mobile phase of 70% A (0.5 acetic acid (v/v) with 1.0 g/l sodium pentane sulfonate) and 30% B (90% acetonitrile and 10% H2 O (v/v) with 1.0 g/l sodium pentane sulfonate); the columnn was ASI C18 300×3.9 mm and the flow rate was 2 ml/min by UV at 267 nm.
This is another data set of the same source.

The nature of another series: in vivo. Conditions: rhesus monkey, topical or ocular, In Vivo - Monkey Plasma, 200 mg on 49 cm^2, 25% ethyl laurate in N-methyl pyrrolidone. Here is the method:
Male rhesus monkeys weighing 10-14 Kg each were used as the subject. An appropriate area of the monkey's chest was shaved 24 hours before drug application.
Drug formulations comprising the PEAC were applied to a certain area of the chest as indicated in each example. The monkey was restrained in a chair to prevent it from touching its chest.
Blood samples were taken at appropriate intervals after the application. The heparinized blood was centrifuged, and the plasma was removed and stored at -20° C. until analyzed. […]
To this solution was added 120 mg of Klucel® (cross-linked hydroxypropylcellulose type HF, Hercules Inc.) and the same stirred thoroughly to obtain a uniform gel.
1.0 ml of the gel was applied to 49 cm^2 of the chest area of the monkey; the applied area was left open to the air for the duration of the experiment.
as §1
To this solution was added 120 mg of hydroxypropylcellulose (Klucel® HF). […]

Setting [3] is: Comparative Composition B: active agent 3 g in 97 g dimethyl propionamide.
[4] abbreviates: Comparative Composition C: active agent 3 g in 97 g acetone, acetone evaporated off.
Setting [5] is: Composition A: active agent 3 g in 97 g of 25 volume % isopropyl myristate in dimethyl propionamide.
Where [6] appears, read: 2 hrs, I: 25 mg drug + 25% isopropyl myristate in N-methyl pyrrolidone.
The mark [7] stands for this setting: 2 hrs, II: 25 mg drug + 25% isopropyl myristate in N-methyl piperidone.
[8] abbreviates: 2 hrs, III: 25 mg drug + 25% isopropyl myristate in N-methyl caprolactam.
Where [9] appears, read: 2 hrs, IV: 25 mg drug + 25% ethyl laurate in N-methyl pyrrolidone.
Setting [10] is: 4 hrs, I: 25 mg drug + 25% isopropyl myristate in N-methyl pyrrolidone.
Setting [11] is: 4 hrs, II: 25 mg drug + 25% isopropyl myristate in N-methyl piperidone.
Where [12] appears, read: 4 hrs, III: 25 mg drug + 25% isopropyl myristate in N-methyl caprolactam.
Setting [13] is: 4 hrs, IV: 25 mg drug + 25% ethyl laurate in N-methyl pyrrolidone.
Setting [14] is: 6 hrs, I: 25 mg drug + 25% isopropyl myristate in N-methyl pyrrolidone.
[15] abbreviates: 6 hrs, II: 25 mg drug + 25% isopropyl myristate in N-methyl piperidone.
[16] abbreviates: 6 hrs, III: 25 mg drug + 25% isopropyl myristate in N-methyl caprolactam.
Setting [17] is: 6 hrs, IV: 25 mg drug + 25% ethyl laurate in N-methyl pyrrolidone.
[18] abbreviates: 8 hrs, I: 25 mg drug + 25% isopropyl myristate in N-methyl pyrrolidone.
[19] abbreviates: 8 hrs, II: 25 mg drug + 25% isopropyl myristate in N-methyl piperidone.
The mark [20] stands for this setting: 8 hrs, III: 25 mg drug + 25% isopropyl myristate in N-methyl caprolactam.
[21] abbreviates: 8 hrs, IV: 25 mg drug + 25% ethyl laurate in N-methyl pyrrolidone.

Where two headings read alike, the source gives them in different places.

With `CN1C(=O)CN=C(c2ccccc2)c2cc(Cl)ccc21` [Diazepam, 7-Chloro-1,3-dihydro-1-methyl-5-phenyl-2H-1,4-benzodiazepine-2-one], the “pharmacological (behavioral) signs” value in series [1] was “produces pharmacological (behavioral) signs of therapeutic effectiveness”.

Consider `CC(C)Cc1ccc(C(C)C(=O)O)cc1` (stereo not drawn) [Ibuprofen, p-isobutylhydratropic acid], for which the flux under setting [3] came out at 835 μg/cm^2 /24 hrs; the flux under setting [4] is on record as 242 μg/cm^2 /24 hrs; the flux under setting [5] came to 1085 μg/cm^2 /24 hrs; the flux in series [2] (setting [6]) turned out to be 154.0 μg/cm^2 /hr; the flux in series [2] (setting [7]) is listed as 142.0 μg/cm^2 /hr; the flux in series [2] (setting [8]) was found to be 33.3 μg/cm^2 /hr. The flux is recorded as 192.8 μg/cm^2 /hr in series [2] (setting [9]); 95.6 μg/cm^2 /hr in series [2] (setting [10]); 79.2 μg/cm^2 /hr in series [2] (setting [11]); 90.7 μg/cm^2 /hr in series [2] (setting [12]); 93.0 μg/cm^2 /hr in series [2] (setting [13]); 53.9 μg/cm^2 /hr in series [2] (setting [14]). For the same compound, the flux is reported as 46.1 μg/cm^2 /hr in series [2] (setting [15]); 76.4 μg/cm^2 /hr in series [2] (setting [16]); 47.5 μg/cm^2 /hr in series [2] (setting [17]); 49.6 μg/cm^2 /hr in series [2] (setting [18]); 40.4 μg/cm^2 /hr in series [2] (setting [19]); 63.2 μg/cm^2 /hr in series [2] (setting [20]). For the same compound, the flux in series [2] (setting [21]) is given as 40.0 μg/cm^2 /hr.

In the case of `COc1ccc2c(c1)c(CC(=O)O)c(C)n2C(=O)c1ccc(Cl)cc1` [Indomethacin, 1-(p-chlorobenzoyl)-5-methoxy-2-methylindole-3-acetic acid], the concentration at 1 h in “in vivo” (1 hour) worked out at 370 ng/mL. In the series “in vivo” (2 hours), the concentration at 2 h came out at 505 ng/mL. The compound further came in with a concentration at 3 h in the series “in vivo” (3 hours) of 420 ng/mL. For the same compound, the concentration at 5 h was 110 ng/mL in the series “in vivo” (5 hours as printed) and 225 ng/mL in the series “in vivo” (5 hours). The flux under setting [3] is recorded as 150 μg/cm^2 /24 hrs; the flux under setting [4] is 30 μg/cm^2 /24 hrs; the flux under setting [5] was 394 μg/cm^2 /24 hrs; the flux in series [2] (setting [6]) is reported as 65.1 μg/cm^2 /hr; the flux in series [2] (setting [7]) amounted to 55.7 μg/cm^2 /hr; the flux in series [2] (setting [8]) was 11.3 μg/cm^2 /hr. In addition, the flux in series [2] (setting [9]) was determined as 89.5 μg/cm^2 /hr; in series [2] (setting [10]), 39.0 μg/cm^2 /hr; in series [2] (setting [11]), 49.3 μg/cm^2 /hr; in series [2] (setting [12]) it was 56.8 μg/cm^2 /hr; in series [2] (setting [13]), 63.7 μg/cm^2 /hr; in series [2] (setting [14]), 21.5 μg/cm^2 /hr. In addition, the flux came out at 29.3 μg/cm^2 /hr in series [2] (setting [15]); 41.3 μg/cm^2 /hr in series [2] (setting [16]); 23.0 μg/cm^2 /hr in series [2] (setting [17]); 13.2 μg/cm^2 /hr in series [2] (setting [18]); 15.1 μg/cm^2 /hr in series [2] (setting [19]); 21.8 μg/cm^2 /hr in series [2] (setting [20]). Besides, the flux in series [2] (setting [21]) is recorded as 13.9 μg/cm^2 /hr.

With `COC(=O)C1=C(C)NC(C)=C(C(=O)OC)C1c1ccccc1[N+](=O)[O-]` [Nifedipine], the flux in series [2] (2 hrs, V (control): 25 mg drug in 1 ml N-methyl pyrrolidone) was below 2 μg/cm^2 /hr; in series [2] (4 hrs, V (control): 25 mg drug in 1 ml N-methyl pyrrolidone), 2.7 μg/cm^2 /hr; in series [2] (6 hrs, V (control): 25 mg drug in 1 ml N-methyl pyrrolidone), 8.1 μg/cm^2 /hr; in series [2] (8 hrs, V (control): 25 mg drug in 1 ml N-methyl pyrrolidone), 3.9 μg/cm^2 /hr.

In turn, `O=C(O)c1ccccc1Nc1cccc(C(F)(F)F)c1` [flufenamic acid, N-(3'-trifluoro-methylphenyl)-anthranilic acid] yielded a flux under setting [3] of 311 μg/cm^2 /24 hrs, a flux under setting [4] of 26 μg/cm^2 /24 hrs and a flux under setting [5] of 598 μg/cm^2 /24 hrs.
